According to patent US20250109127A1, “METHODS OF USE OF PHENOXYPROPYLAMINE COMPOUNDS TO TREAT DEPRESSION” (Minerva Neurosciences, Inc., priority 2013, published 2025):
“And” between values parts separate entries of the source, which are not always exact repeats. Equal values may be shown once. Where a name gives a salt, the structure may show the parent alone.

Tested on: dopamine release in the rat prefrontal cortex
Assay: Microdialysis: dopamine release in prefrontal cortex after I.P. administration
Assay type: in vivo
Conditions: for Dopamine release, individual animals / Dopamine release, MEAN: 0.3 mg/kg I.P.; for Dopamine release, individual animals: one column per animal R#11,12,18,23,29,30,17,24, hydrochloride; for Dopamine release, MEAN / DOPAMINE (% of respective basal) MEAN: n = 8; for DOPAMINE (% of respective basal) MEAN: SON-117 group 0.1 mg/kg I.P.
Description: The aim of the study was to evaluate, using microdialysis, the effects of an intraperitoneal (I.P.) administration in rats of three different doses of SON-117 on dopamine and its metabolites, serotonin and its metabolite (5-HIAA), and norepinephrine levels in prefrontal cortex.
Thirty-two adult male Wistar rats were used for the whole study (4 groups of eight animals planned for the study, Table 1).
Surgery was performed on rats weighing about 300 g at the beginning of the experiments. Rats were anaesthetized with Ketamine (50 mg/kg) & Xylazine (15 mg/kg) by intramuscular administration. The animals were placed in a stereotaxic apparatus in the flat-skull position at a constant setting of −3.3 mm between ear bars and the incisor bar. The animals were treated with a local anesthesic (xylocaine 1%, Astra Zeneca) and an analgesic (Temgesic, from Schering Plough, 0.05 mg/kg, s.c.). A rostrocaudal midline incision was made with a lancet to expose the dorsal skull surface. The “stereotaxic zero” was defined by the Bregma in accordance with Paxinos and Watson's atlas (1986). A hole was drilled in the skull with a drill and the meninges were pierced with a sterile needle to implant a CMA12 guide cannula which later received the dialysis probe.
Coordinates used for implanting guide cannula in prefrontal cortex from Bregma were anteroposterior 3.7 mm, mediolateral 0.8 mm, and dorsoventral −2 mm (top of the probe was at −5 mm). The guide cannula was fixed to the skull with two stainless steel screws (1.88 mm outside diameter) anchored. An application of dental cement was added. A plastic collar allowed each animal to be tethered to a Swivel assembly of the CMA 120 awake animal system. Following surgery, rats were kept in individual cages and allowed to recover for a minimum of 3-5 days before the experimentation. The rats were handled and put in plastic bowl for 10 min at least every day to habituate the animals to their new environment for the dialysis. An I.P. administration with saline was also performed every day.
Dialysis probes (CMA12/3 mm, membrane, 20 kD cut-off, Carnegie Medicine, Stockholm, Sweden), were carefully washed before inserting into the guide cannula. The wash was performed with the artificial cerebrospinal fluid (aCSF) medium (NaCl 147 mM, KCl 2.7 mM, CaCl2 1.2 mM, MgCl2 0.85 mM) at room temperature. The dialysis system was then equilibrated at 20° C. at a perfusion rate of 1 μl/min with a Carnegie pump (CMA100). All catheters (FEP tubing, internal volume of 1.2 μl/10 cm, and tubing adaptors) used for microdialysis were treated in the same conditions.
The probes duly prepared were inserted into the guide cannula and the CMA120 Swivel assembly secured to the animal using a plastic collar. Flow through the dialysis probe with aCSF was maintained at a rate of 1 μl/min during the whole experimentation. The first four fractions (corresponding to 2 hours) were discarded to avoid the effects of parenchymal disturbance and to ensure that an approximate steady-state level was reached. Fractions were then collected over a period of 8.5 h during which time the animals remained quiet. The dialysates were automatically collected with an autosampler (microfraction collector CMA 140, Carnegie Medicin) and stored at −80° C. until analysis. […] Perfusion was then maintained for 7 hours with aCSF. The dialysates (30 μl) were collected into 300 μl vials, transferred into dry ice and then kept frozen (−80° C.) until analysis. Frozen samples were shipped to a partner for analysis. At the end of the microdialysis study, a PBS with colored ink was perfused through the probe in order to visualize the dialyzed area.
Catecholamine assay: Concentrations of dopamine, DOPAC, HVA, 5-HIAA, 5-HT, and norepinephrin were determined for each sample by HPLC coupled with electrochemical detection.

[1] = T-30 min-T0 (before administration)
[2] = T-1 h 30-T-1 h (before administration)
[3] = T-1 h-T-30 min (before administration)

## Cc1nnc(-c2cc3c(OC[C@@H](O)CN4CCC(c5ccc(Cl)c(Cl)c5)CC4)cccc3o2)o1 [SON-117, (S)-1-(4-(3,4-dichlorophenyl)piperidino)-3-(2-(5-methyl-1,3,4-oxadiazol-2-yl)benzo(b)furan-4-yloxy)-2-propanol hydrochloride]
T5 h 30-T6 h
  Dopamine release, individual animals: 1190.31 % of respective basal and 66.72 % of respective basal and 285.31 % of respective basal and 29.48 % of respective basal and 247.57 % of respective basal and 111.91 % of respective basal and 52.03 % of respective basal and 128.48 % of respective basal
  DOPAMINE (% of respective basal) MEAN: 188.21 % of respective basal
T5 h-T5 h 30
  Dopamine release, MEAN: 263.19 % of respective basal
  Dopamine release, individual animals: 611.23 % of respective basal and 37.39 % of respective basal and 1036.44 % of respective basal and 30.12 % of respective basal and 108.05 % of respective basal and 81.56 % of respective basal and 80.36 % of respective basal and 120.37 % of respective basal
  DOPAMINE (% of respective basal) MEAN: 183.94 % of respective basal
T6 h 30-T7 h
  Dopamine release, MEAN: 297.55 % of respective basal
  Dopamine release, individual animals: 331.87 % of respective basal and 230.42 % of respective basal and 224.57 % of respective basal and 11.34 % of respective basal and 202.06 % of respective basal and 117.28 % of respective basal
  DOPAMINE (% of respective basal) MEAN: 353.25 % of respective basal
T6 h-T6 h 30
  Dopamine release, MEAN: 267.65 % of respective basal
  Dopamine release, individual animals: 879.91 % of respective basal and 122.45 % of respective basal and 101.84 % of respective basal and 10.68 % of respective basal and 188.10 % of respective basal and 103.08 % of respective basal and 135.89 % of respective basal and 599.24 % of respective basal
  DOPAMINE (% of respective basal) MEAN: 226.43 % of respective basal
[1]
  Dopamine release, MEAN: 100.22 % of respective basal
  DOPAMINE (% of respective basal) MEAN: 105.18 % of respective basal
[2]
  Dopamine release, MEAN: 104.26 % of respective basal
  DOPAMINE (% of respective basal) MEAN: 100.9 % of respective basal
[3]
  Dopamine release, MEAN: 98.66 % of respective basal
  DOPAMINE (% of respective basal) MEAN: 91.46 % of respective basal
SON-117 0.1 mg/kg I.P., from 4.5 h to 7 h
  dopamine levels, increase (not statistically significant): 353%
SON-117 0.1 mg/kg I.P., from T1.5 h and 2.5 h
  dopamine levels, increase (not statistically significant): 287%
SON-117 0.3 mg/kg I.P., from 5.5 h to 7 h
  dopamine levels, increase (not statistically significant): 298%
SON-117 3 mg/kg IP, at 1.5 h
  dopamine levels, slight increase (not statistically significant): 169%
SON-117 3 mg/kg IP, from 6 h to 7 h
  dopamine levels, slight increase, max. (not statistically significant): 167%
SON-117 0.1 and 0.3 mg/kg, from 5.5 h
  release of dopamine, trend: trend for an increased release
SON-117 at the three doses tested, in function of time
  dopamine, difference to the citalopram group (two-way ANOVA): no significant differences
T0-T30 min
  DOPAMINE (% of respective basal) MEAN: 133.37 % of respective basal
T30-T1 h
  DOPAMINE (% of respective basal) MEAN: 103.29 % of respective basal
T1 h 30-T2 h
  DOPAMINE (% of respective basal) MEAN: 151.81 % of respective basal
T1 h-T1 h 30
  DOPAMINE (% of respective basal) MEAN: 123.06 % of respective basal
T2 h 30-T3 h
  DOPAMINE (% of respective basal) MEAN: 138.45 % of respective basal
T2 h-T2 h 30
  DOPAMINE (% of respective basal) MEAN: 286.96 % of respective basal
T3 h 30-T4 h
  DOPAMINE (% of respective basal) MEAN: 155.83 % of respective basal
T3 h-T3 h 30
  DOPAMINE (% of respective basal) MEAN: 150.01 % of respective basal
T4 h 30-T5 h
  DOPAMINE (% of respective basal) MEAN: 240.84 % of respective basal
T4 h-T4 h 30
  DOPAMINE (% of respective basal) MEAN: 215.81 % of respective basal
